pIC50: −log10 of the molar value.
Target: recombinant human deoxyuridine nucleotidohydrolase (dUTPase) (Homo sapiens (Human), UniProt P33316)
Assay: fluorescence-based dUTPase inhibition assay
Type: biochemical
Conditions: for % relative inhibition vs. positive control: mean over three concentrations, typically 100, 50 and 25 μmol/L, compared to in-run positive control
Excerpt: Recombinant human deoxyuridine nucleotidohydrolase (dUTPase) is expressed and purified as described in Ladner R D, Carr S A, Huddleston M J, McNulty D E, Caradonna S J. J Biol Chem. 1996 Mar. 29; 271(13):7752-7. All drugs stocks are aliquoted and diluted as appropriate prior to use. The oligonucelotide primer, templates and fluorophore- and quencher-labeled detection probes are synthesized by Integrated DNA Technologies (Coralville, Iowa), subjected to polyacrylamide gel electrophoresis purification and reconstituted in Omnipur sterile nuclease-free water (EMD Chemicals USA, Gibbstown N.J.) at a stock concentration of 100 μmol/L. The two non-emissive (dark) quenching molecules incorporated into the detection probes include the Iowa black fluorescein quencher (IBFQ; absorption max 531 nm) and ZEN (non-abbreviation; absorption max 532 nm). The fluorescent label utilized is 6-FAM (5′-carboxyfluorescein; excitation max.=494 nm, emission max.=520 nm). Probes are further diluted to a working stock of 10 μmol/L and aliquoted to avoid repeated freeze/thaw cycles. AmpliTaq Gold DNA Polymerase, GeneAmp 10×PCR Buffer 2, MgCl2 and MicroAmp Optical 96-well Reaction Plates are purchased from Applied Biosystems (Carlsbad, Calif.). dNTPs are purchased individually at stock concentrations of 100 mmol/L from New England Biolabs at HPLC-certified >99% purity (Ipswich, Mass.).
Reaction mixtures contained primer, probe and template at an equimolar final concentration of 0.4 μmol/L. Magnesium chloride (MgCl2) is included at a final concentration of 2 mmol/L. Non-limiting dNTPs are included in the reaction mix in excess at a final concentration of 100 μmol/L (dUTP/dTTP is excluded). AmpliTaq Gold DNA polymerase is added at 0.875 U/reaction, 2.5 μl of 10×PCR buffer 2 added and nuclease-free ddH2O added to a final reaction volume of 25 μl. For dUTP inhibition analysis, the volume of ddH2O is further modified to accommodate an additional 1 μl of dUTPase (10 ng/μl) and 1 μl of inhibitor or DMSO control. Thermal profiling and fluorescence detection is performed using a customized thermal program on board a Roche Lightcycler LC480 Instrument II. For analysis of dNTPs, the thermal profile consisted of an 8 min 37° C. step followed by a 10 min 95° C. step to ‘hot-start’ the Taq polymerase and a primer extension time of up to 30 min at 60° C. Raw fluorescence spectra for 6-FAM is measured at specified time intervals to follow assay progression on board a Roche LightCycler 480 Software Version 1.5 and exported and analyzed in Microsoft Excel (Microsoft, Redmond Wash.) and Prism (GraphPad Software, La Jolla Calif.). Fluorescence values for blank reactions (limiting dNTP omitted) are subtracted to give normalized fluorescence units (NFU) to account for background fluorescence.
Test compounds are screened in a fluorescence-based assay. The assay employs a DNA polymerase-based approach utilizing an oligonucleotide template with 3 distinct regions: a 3′ primer binding region, a mid-template dUTP/thymidine triphosphate (TTP) detection region and a 5′ 6-[…] (FAM)-labeled probe binding region that incorporates a black hole quenching moiety. During the reaction, the probe and primer hybridize to the oligonucleotide template to form the template:primer:probe complex. When Taq polymerase binds to the primer in the TPP complex and dUTP is present, successful extension of the nascent strand occurs and the inherent 5′ to 3′ exonuclease activity of Taq polymerase cleaves and displaces the 6-FAM-labeled probe in a 5′ to 3′ direction, releasing the 6-FAM fluorophore from its proximity to the three quenchers. This displacement effectively disrupts the Förster resonance energy transfer (FRET) and the resulting fluorescence detected upon excitation is directly proportional to the amount of the dUTP available in the assay for incorporation. […]

Chain of recombinant human deoxyuridine nucleotidohydrolase (dUTPase) (P33316 other isoform, or with tags, fused parts or gaps): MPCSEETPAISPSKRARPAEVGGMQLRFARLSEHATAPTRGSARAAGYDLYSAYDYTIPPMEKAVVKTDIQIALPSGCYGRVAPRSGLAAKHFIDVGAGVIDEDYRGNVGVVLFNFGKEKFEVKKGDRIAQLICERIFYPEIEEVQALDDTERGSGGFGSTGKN

Row | SMILES | % relative inhibition vs. positive control | pIC50
1 | [2H]C([2H])(Oc1cc([C@@H](C)NS(=O)(=O)CCCCCN2CC(=O)NC2=O)ccc1F)C1CC1 [Example 97, (R)—N-(1-(3-(cyclopropylmethoxy-d2)-4-fluorophenyl)ethyl)-5-(2,4-dioxoimidazolidin-1-yl)pentane-1-sulfonamide] | 182% | 
2 | C[C@@H](NS(=O)(=O)CCOCCN1CC(=O)NC1=O)c1cccc(OCC2CC2)c1 [Example 114, (R)—N-(1-(3-(cyclopropylmethoxy)phenyl)ethyl)-2-(2-(2,4-dioxoimidazolidin-1-yl)ethoxy)ethane-1-sulfonamide] | 124% | 
3 | C[C@@H](NS(=O)(=O)CCCOCN1CC(=O)NC1=O)c1cccc(OCC2CC2)c1 [Example 115, (R)—N-(1-(3-(cyclopropylmethoxy)phenyl)ethyl)-3-((2,4-dioxoimidazolidin-1-yl)methoxy)propane-1-sulfonamide] | 164% | 
4 | C[C@H](c1ccc(F)c(OCC2CC2)c1)N(C)S(=O)(=O)CCCCCN1CC(=O)NC1=O [Example 92, (R)—N-(1-(3-(cyclopropylmethoxy)-4-fluorophenyl)ethyl)-5-(2,4-dioxoimidazolidin-1-yl)-N-methylpentane-1-sulfonamide] | 12% | 5.20
5 | C[C@@H](NS(=O)(=O)CC/C=C/CN1C(=O)NC(=O)C1(C)C)c1ccc(F)c(OCC2CC2)c1 [Example 112, (R,E)-N-(1-(3-(cyclopropylmethoxy)-4-fluorophenyl)ethyl)-5-(5,5-dimethyl-2,4-dioxoimidazolidin-1-yl)pent-3-ene-1-sulfonamide] | 50% | 
6 | O=C1CN(CCCCCCNS(=O)(=O)c2cccc(OCC3CC3)c2)C(=O)N1 [Example 80, 3-(cyclopropylmethoxy)-N-(6-(2,4-dioxoimidazolidin-1-yl)hexyl)benzenesulfonamide] | 151% | 
7 | CC(C)COc1cc(C2(NS(=O)(=O)CCCCCN3C(=O)NC(=O)C3(C)C)CC2)ccc1F [118b, 5-(5,5-dimethyl-2,4-dioxoimidazolidin-1-yl)-N-(1-(4-fluoro-3-isobutoxyphenyl)cyclopropyl)pentane-1-sulfonamide] | 19% | 
8 | CC(C)C(NS(=O)(=O)CCCCCN1CC(=O)NC1=O)c1ccc(F)c(OCC2CC2)c1 (stereo not shown) [Example 103, N-(1-(3-(cyclopropylmethoxy)-4-fluorophenyl)-2-methylpropyl)-5-(2,4-dioxoimidazolidin-1-yl)pentane-1-sulfonamide] | 27% | 
9 | CCOc1cc([C@@H](C)NS(=O)(=O)CCCCCN2CC(=O)NC2=O)ccc1F [Example 82, (R)-5-(2,4-dioxoimidazolidin-1-yl)-N-(1-(3-ethoxy-4-fluorophenyl)ethyl)pentane-1-sulfonamide] | 25% | 5.52
10 | CC(C)COc1cc([C@@H](C)NS(=O)(=O)CCCOCN2CC(=O)NC2=O)ccc1F [Example 116, (R)-3-((2,4-dioxoimidazolidin-1-yl)methoxy)-N-(1-(4-fluoro-3-isobutoxyphenyl)ethyl)propane-1-sulfonamide] | 173% | 
11 | C[C@@H](NS(=O)(=O)CCn1ccc(N2CC(=O)NC2=O)n1)c1ccc(F)c(OCC2CC2)c1 [Example 106, (R)—N-(1-(3-(cyclopropylmethoxy)-4-fluorophenyl)ethyl)-2-(3-(2,4-dioxoimidazolidin-1-yl)-1H-pyrazol-1-yl)ethane-1-sulfonamide] | 1% | 3.82
12 | CC1(C)C(=O)NC(=O)N1C/C=C/CCS(=O)(=O)NC1(c2ccc(F)c(OCC(F)F)c2)CC1 [compound 121, (E)-N-(1-(3-(2,2-difluoroethoxy)-4-fluorophenyl)cyclopropyl)-5-(5,5-dimethyl-2,4-dioxoimidazolidin-1-yl)pent-3-ene-1-sulfonamide] | 21% | 
13 | C[C@H]1C(=O)NC(=O)N1COCCCS(=O)(=O)NC1(c2ccc(F)c(OCC3CC3)c2)CC1 [compound 124, (S)—N-(1-(3-(cyclopropylmethoxy)-4-fluorophenyl)cyclopropyl)-3-((5-methyl-2,4-dioxoimidazolidin-1-yl)methoxy)propane-1-sulfonamide] | 153% | 
14 | C[C@@H](NS(=O)(=O)CCCCCN1CC(=O)NC1=O)c1ccc(F)c(NCC2CC2)c1 [Example 96, (R)—N-(1-(3-((cyclopropylmethyl)amino)-4-fluorophenyl)ethyl)-5-(2,4-dioxoimidazolidin-1-yl)pentane-1-sulfonamide] | 19% | 5.40
15 | C[C@@H](NS(=O)(=O)CCCCCN1CC(=O)NC1=O)c1ccc(F)c(OCC(=O)O)c1 [Example 101, (R)-2-(5-(1-((5-(2,4-dioxoimidazolidin-1-yl)pentyl)sulfonamido)ethyl)-2-fluorophenoxy)acetic acid] | 4% | 4.70
16 | CC(C)COc1cc([C@@H](C)NS(=O)(=O)CC/C=C/CN2C(=O)NC(=O)[C@H]2C)ccc1F [Compound 108a, (E)-N—((R)-1-(4-fluoro-3-isobutoxyphenyl)ethyl)-5-((R)-5-methyl-2,4-dioxoimidazolidin-1-yl)pent-3-ene-1-sulfonamide] | 123% | 
17 | C[C@@H](NS(=O)(=O)CCCCCN1CC(=O)NC1=O)c1ccc(F)c(Oc2ccccc2)c1 [Example 99, (R)-5-(2,4-dioxoimidazolidin-1-yl)-N-(1-(4-fluoro-3-phenoxyphenyl)ethyl)pentane-1-sulfonamide] | 60% | 5.90
18 | C[C@@H](NS(=O)(=O)CCCCCC1CC(=O)NC1=O)c1ccc(F)c(OCC2CC2)c1 (stereo partly drawn) [compound 126, N—((R)-1-(3-(cyclopropylmethoxy)-4-fluorophenyl)ethyl)-5-(2,5-dioxopyrrolidin-3-yl)pentane-1-sulfonamide] | 152% | 

Second part, the compound after the results:

Row | % relative inhibition vs. positive control | pIC50 | SMILES
19 | 153% |  | C[C@@H](NS(=O)(=O)CC/C=C/CN1C(=O)NC(=O)[C@@H]1C)c1ccc(F)c(OCC2CC2)c1 [Compound 107a, (E)-N—((R)-1-(3-(cyclopropylmethoxy)-4-fluorophenyl)ethyl)-5-((S)-5-methyl-2,4-dioxoimidazolidin-1-yl)pent-3-ene-1-sulfonamide]
20 | 154% |  | C[C@@H](NS(=O)(=O)CCCCCN1C(=O)NC(=O)[C@@H]1C)c1ccc(F)c(OCC2CC2)c1 [Compound 107b, N—((R)-1-(3-(cyclopropylmethoxy)-4-fluorophenyl)ethyl)-5-((S)-5-methyl-2,4-dioxoimidazolidin-1-yl)pentane-1-sulfonamide]
21 | 102% |  | C[C@H]1C(=O)NC(=O)N1CCCCCS(=O)(=O)NC1(c2cccc(OCC3CC3)c2)CC1 [123b, (S)—N-(1-(3-(cyclopropylmethoxy)phenyl)cyclopropyl)-5-(5-methyl-2,4-dioxoimidazolidin-1-yl)pentane-1-sulfonamide]
22 | 10% |  | CC1(C)C(=O)NC(=O)N1C/C=C/CCS(=O)(=O)NC1(c2ccc(F)c(OCC3CC3)c2)CC1 [119a, (E)-N-(1-(3-(cyclopropylmethoxy)-4-fluorophenyl)cyclopropyl)-5-(5,5-dimethyl-2,4-dioxoimidazolidin-1-yl)pent-3-ene-1-sulfonamide]

Source: patent US10858344B2, “Hydantoin containing deoxyuridine triphosphatase inhibitors” (CV6 Therapeutics (NI) Limited, priority 2016, dated 2020)
